These results are taken from paper PMC7018972, “Novel and selective inactivators of Triosephosphate isomerase with anti-trematode activity” (Scientific Reports, 2020).

One may read the IC50 as the midpoint of a concentration-inhibition curve.

Fasciola hepatica TIM (FhTIM), sequence (S4UI50 entry or part of it): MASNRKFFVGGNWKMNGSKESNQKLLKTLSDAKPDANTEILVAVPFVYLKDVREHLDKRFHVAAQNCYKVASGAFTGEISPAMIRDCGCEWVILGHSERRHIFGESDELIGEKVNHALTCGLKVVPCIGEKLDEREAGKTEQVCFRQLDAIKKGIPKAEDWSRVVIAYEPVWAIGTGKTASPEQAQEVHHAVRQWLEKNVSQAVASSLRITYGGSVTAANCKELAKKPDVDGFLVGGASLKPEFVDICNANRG

The target of the first experiment is Fasciola hepatica TIM (FhTIM) (Fasciola hepatica, UniProt S4UI50). As to the kind of experiment: Inhibition of recombinant FhTIM, coupled enzyme assay. It is filed as biochemical. The settings on record: Table 1S, screening of 340 compounds in FhTIM; table head prints no unit, µM per b8/b9; read-out: IC50. On the procedure:
Expression and purification of proteins: FhTIM, RabbitTIM and HsTIM were expressed in Escherichia coli and purified as described in the literature[31],[37]. […] Before use, extensive dialysis against 100 mM triethanolamine/10 mM EDTA (pH 7.4) was performed. […] Enzymatic activity was determined following the conversion of glyceraldehydes-3-phosphate into dihydroxyacetone phosphate in a coupled enzyme assay. The decrease in absorbance at 340 nm was followed in a multiplate reader VarioskanTM Flash Multimode Reader (Thermo ScientificTM, Waltham, MA, USA) at 38 °C. The reaction mixture (1 mL, pH 7.4) contained 100 mM triethanolamine, 10 mM EDTA, 0.2 mM NADH, 1 mM glyceraldehydes-3-phosphate and 0.9 units of α-glycerol phosphate dehydrogenase. The reaction was initiated by the addition of 5 ng/mL of the TIM of interest. For the inhibition studies, TIM was incubated at a concentration of 5 mg/mL in a buffer containing 100 mM triethanolamine, 10 mM EDTA, pH 7.4 and 10% of DMSO at 37 °C for 1 h. The mixture also contained the compounds, dissolved in DMSO, at the indicated concentrations. After 1 h, 10 µL were withdrawn and added to a final volume of 100 µL of the reaction mixture for the activity assay. The inhibition assay was performed in a 96-well microplate. […] The experiments were performed in triplicate in two independent experiments.
On to `C=CCn1c(C)csc1=NN=Cc1ccc([N+](=O)[O-])s1` [Compound 143], for which the IC50 fell in the range of 50 to 100 µM.
For the compound `Cc1csc(=NN=CC=Cc2ccco2)n1-c1ccccc1` [Compound 1131], the IC50 is more than 100 µM.
Still for that read-out and setting: with `Nc1ccc([N+](=O)[O-])cc1` [Compound 1196] the figure was more than 100 µM; with `COc1nn(CCOCCN(C)CC=Cc2ccccc2)c2ccc([N+](=O)[O-])cc12` [Compound 504], more than 100 µM; with `C=CCNC(=S)NN=C(C)c1cc2ccccc2o1` [Compound 787], more than 100 µM.
For the compound `Cc1c(C=NNC(N)=S)no[n+]1[O-]` [Compound 1283], the IC50 is more than 100 µM.
Same read-out and setting: with `CN(C/C=C/c1ccccc1)CCOCCn1nc(OCc2ccccc2)c2cc([N+](=O)[O-])ccc21` [Compound 508] the figure was more than 100 µM; with `C=CCn1c(C)csc1=NN=Cc1cccs1` [Compound 274], 50 to 100 µM; with `O=C(NN=Cc1ccccc1O)c1ccc(Cl)cc1` [Compound 1249], more than 100 µM.
Still for that read-out and setting: with `CC1(C)[N+]([O-])=c2ccc(Cl)cc2=[N+]1[O-]` [Compound 532] the figure was 50 to 100 µM; with `O=c1cc(O)n(Cc2ccccc2)c(=S)n1Cc1ccccc1` [Compound 1088], more than 100 µM.
The same measure, in the same setting: with `[O-][N+]1=c2ccccc2=[N+]([O-])C12CCCC2` [Compound 633] the figure was more than 100 µM.
As for `CCCN(CCCCCn1nc(OCc2ccccc2)c2cc([N+](=O)[O-])ccc21)CCC(C)C1CC=C(C)CC1` (stereo not drawn) [Compound 199], the IC50 is more than 100 µM.
The same measure, in the same setting: next, `C(=Cc1ccco1)C=NN1CCN(Cc2ccccc2)CC1` [Compound 874]: more than 100 µM.
Still for that read-out and setting: next, `C=CCN1C(=O)CSC1=NN=C(C)[C@H]1CC[C@H]2[C@@H]3CC=C4CC(O)CC[C@]4(C)[C@H]3CC[C@]12C` (stereo partly drawn) [Compound 1125]: more than 100 µM.
The same measure, in the same setting: next, `C=CCn1c(-c2ccc(Cl)cc2)csc1=NN=Cc1ccc2no[n+]([O-])c2c1` [Compound 304]: more than 100 µM; `C=CCn1c(-c2ccc([N+](=O)[O-])cc2)csc1=NN=C/C=C/c1cccs1` [Compound 907]: more than 100 µM; `Nc1nc(-c2ccc(Cl)cc2)cs1` [Compound 813]: more than 100 µM.
Take `NNC(=O)c1ccncc1` [Compound 1120]: the IC50 was more than 100 µM.
Same read-out and setting: with `COc1ccc(CN2c3nc(-c4ccccc4OC)[nH]c3C(N)=NS2(=O)=O)cc1` [Compound 707] the figure was more than 100 µM; with `C=CCn1c(-c2ccc(OC)cc2)csc1=NN=CC=Cc1ccco1` [Compound 871], more than 100 µM.
The same measure, in the same setting: with `C=CCn1c(-c2ccccc2)csc1=NN=Cc1ccc(S(=O)(=O)O)o1` [Compound 876] the figure was more than 100 µM; with `C(=Cc1ccco1)C=NN=CC=Cc1ccco1` [Compound 1140], more than 100 µM.
On the same count and under the same terms, with `O=c1cc(-c2ccccc2)oc2ccccc12` [Compound 148] the figure was more than 100 µM; with `C=CCNC(=S)NN=C(C=CC=Cc1ccc(C)o1)C=CC=Cc1ccc(C)o1` [Compound 900], more than 100 µM; with `O=[N+]([O-])c1ccc(C=NN=c2scc(-c3ccccc3)n2-c2ccccc2)s1` [Compound 268], more than 100 µM.
As to `C=CCN1C(=O)CSC1=NN=CC=CC=Cc1cccs1` [Compound 312], the IC50 was more than 100 µM.
The same measure, in the same setting: with `O=[N+]([O-])c1ccc2c(c1)c(O)nn2Cc1ccccc1CN1CCCCC1` [Compound 456] the figure was more than 100 µM; with `O=C1C(=Cc2cccs2)CCC1=Cc1cccs1` [Compound 1248], more than 100 µM.
For `S=C(NN=CC=CC=Cc1cccs1)Nc1ccccc1` [Compound 310], the concentration for half-maximal inhibition (IC50) was 50 to 100 µM.
As to `C=CCNc1nnc(-c2ccc([N+](=O)[O-])s2)s1` [Compound 292], the IC50 is more than 100 µM.
Same read-out and setting: next, `O=[N+]([O-])c1ccc(C=NN=c2[nH]c(-c3ccc(Cl)cc3)cs2)s1` [Compound 267]: more than 100 µM.
On the same count and under the same terms, with `NC1=NC(=O)N=C(N)C1=Cc1ccco1` [Compound 575] the figure was 50 to 100 µM; with `[O-][n+]1onc2ccc(C=NNC(=S)Nc3ccccc3)cc21` [Compound 41], more than 100 µM.
The same measure, in the same setting: next, `C=CCn1c(C(=O)O)csc1=NN=CC=Cc1cccs1` [Compound 1126]: more than 100 µM; `C=CCn1c(-c2ccc(OC)cc2)csc1=NN=CC=Cc1cccs1` [Compound 1133]: more than 100 µM.
Consider `O=S(=O)(NCc1ccccc1)NCc1ccccc1` [Compound 119], for which the IC50 is more than 100 µM.
As to `O=[N+]([O-])c1ccc(C=Cc2ccc3nonc3c2)cc1` [Compound 584], the IC50 was more than 100 µM.
The same measure, in the same setting: next, `C=CCn1c(-c2ccc(Cl)cc2)csc1=NN=Cc1ccc([N+](=O)[O-])s1` [Compound 145]: more than 100 µM.
For the compound `O=C(C=Cc1cccs1)C=Cc1cccs1` [Compound 796], the concentration for half-maximal inhibition (IC50) was more than 100 µM.
Take `O=C(C(O)c1ccccc1)C(O)c1ccccc1` (stereo not drawn) [Compound 1083]: the IC50 was more than 100 µM.
On the same count and under the same terms, next, `C=CCN1C(=O)C(CC(=O)O)SC1=NN=Cc1cccs1` (stereo not drawn) [Compound 1139]: 50 to 100 µM.
As for `O=Cc1ccc2no[n+]([O-])c2c1` [Compound 38], the IC50 was more than 100 µM.
Turning to `O=C(C=Cc1cccc2ccccc12)c1ccccc1O` [Compound 1269], the half-maximal inhibitory concentration (IC50) was more than 100 µM.
The same measure, in the same setting: next, `O=S(=O)(O)c1ccc(C=NN=c2scc(-c3csc(=NN=Cc4ccccc4)n3-c3ccccc3)n2-c2ccccc2)o1` [Compound 784]: more than 100 µM.
Same read-out and setting: next, `COc1ccc(C=Cc2cnnc[n+]2[O-])cc1` [Compound 365]: more than 100 µM.
Same read-out and setting: with `O=[N+]([O-])c1ccc2c(c1)c(O)nn2CCOCCN1CCSCC1` [Compound 642] the figure was more than 100 µM; with `O=[N+]([O-])c1cc(CI)ccc1F` [Compound 769], 100 µM.
Take `S=C(NN=Cc1ccccc1)Nc1ccccc1` [Compound 278]: the half-inhibitory concentration (IC50) was more than 100 µM.
With `C=CCn1c(-c2csc(=NN=Cc3cccs3)n2CC=C)csc1=NN=Cc1cccs1` [Compound 288], the IC50 is more than 100 µM.
On the same count and under the same terms, with `C=CCN(C(C)=O)C1=NNC(c2ccc([N+](=O)[O-])s2)S1` (stereo not drawn) [Compound 287] the figure was more than 100 µM; with `O=[N+]([O-])c1ccc2c(c1)c(O)nn2CCCCCN1CCCCC1` [Compound 481], 50 to 100 µM.
`COC(=O)NN=Cc1ccc2nonc2c1` [Compound 31]: the IC50 is more than 100 µM.
Consider `C=CCNC(=S)NN=Cc1ccc(O)cc1` [Compound 291], for which the half-maximal inhibitory concentration (IC50) is more than 100 µM.
Still for that read-out and setting: next, `C=CCn1c(-c2ccccc2)csc1=NN=CC=Cc1cccs1` [Compound 875]: 50 to 100 µM; `C=CCN1C(=O)CSC1=NN=Cc1ccc(Cl)cc1` [Compound 260]: more than 100 µM; `CCOC(=O)On1c(C(=O)OCC)nc2ccc([N+](=O)[O-])cc21` [Compound 660]: more than 100 µM.
On the same count and under the same terms, with `COCCNC(=O)/C=C/c1ccc([N+](=O)[O-])o1` [Compound 60] the figure was more than 100 µM.
Still for that read-out and setting: with `O=C(NN=Cc1ccccc1O)c1ccccc1Cl` [Compound 1250] the figure was more than 100 µM; with `CCN(CC)CCCNS(=O)(=O)NCCCN(CC)CC` [Compound 125], more than 100 µM.
With `S=C(NCc1ccccc1)NCc1ccccc1` [Compound 1085], the IC50 was more than 100 µM.
The same measure, in the same setting: next, `Cc1nnc[n+]([O-])c1/C=C/c1ccc([N+](=O)[O-])s1` [Compound 361]: 100 µM; `O=C1/C(=C/C=C/c2ccco2)CCC/C1=C\C=C\c1ccco1` [Compound 1019]: 50 to 100 µM.
On the same count and under the same terms, with `C=CCN(C(C)=O)C1=NNC(c2cccs2)S1` (stereo not drawn) [Compound 286] the figure was more than 100 µM.
Still for that read-out and setting: next, `Cc1nnc[n+]([O-])c1C=Cc1ccc2c(c1)OCO2` [Compound 216]: more than 100 µM; `Oc1ccccc1CN1N=Cc2ccccc2OB1F` [Compound 1198]: more than 100 µM.
On to `O=C1C(=CC=Cc2cccs2)CCC1=CC=Cc1cccs1` [Compound 1018], for which the half-maximal inhibitory concentration (IC50) is more than 100 µM.
Same read-out and setting: with `NC(N)=N/N=C/c1ccc(O)cc1` [Compound 675] the figure was 50 to 100 µM; with `Cc1ccc(-n2c(C#N)c3ccccc3[n+]2[O-])cc1` [Compound 476], more than 100 µM; with `O=C(C=CC=Cc1cccs1)C=CC=Cc1cccs1` [Compound 798], more than 100 µM.
Same read-out and setting: with `CSc1ccc(C=CC(=O)c2ccc([N+](=O)[O-])cc2)cc1` [Compound 1155] the figure was more than 100 µM; with `S=C(NN=C/C=C/c1ccco1)Nc1ccccc1` [Compound 277], more than 100 µM; with `Cc1ncc([N+](=O)[O-])n1CCI` [Compound 712], more than 100 µM.
As to `CCOC(=O)c1n(Cc2ccc(N(C)C)cc2)c2ccc([N+](=O)[O-])cc2[n+]1[O-]` [Compound 553], the IC50 was more than 100 µM.
On the same count and under the same terms, next, `NC1=NS(=O)(=O)N=C(N)C1=Cc1ccc([N+](=O)[O-])o1` [Compound 117]: more than 100 µM; `C(=Cc1ccco1)C=NN=c1scc(-c2ccccc2)n1-c1ccccc1` [Compound 1132]: more than 100 µM; `O=[N+]([O-])c1ccc(C=CC=NNC(=S)Nc2ccccc2)o1` [Compound 54]: more than 100 µM.

Still in this experiment, the particulars now being: recombinant FhTIM, 1 h incubation with compound at 37 °C; read-out: IC50.
On to `S=C(NN=CC=CC=Cc1cccs1)Nc1ccccc1` [Compound 310], for which the IC50 was 79 ± 7 µM.
